Biological target: T1, Human phosphodiesterase-1B (Homo sapiens, UniProt Q01064)
T1 construct: host or cells: Sf9 cells
Assay: PDE1B (h) assay
Assay type: biochemical
Procedure: Method. • Human phosphodiesterase-1B quantified by measuring the formation of 5′GMP from cGMP using a human recombinant enzyme expressed in Sf9 cells
The test compound (compound 72), reference compound or water (control) were added to a buffer containing 40 mM Tris/HCl (pH 7.4), 8 mM MgCl2 0.21% BSA, 0.5 μg/ml calmoduline and 0.5 mM CaCl2), 1.125 μM cGMP and 0.027 μCi [3H]cGMP. Thereafter, the reaction was initiated by addition of the enzyme (about 0.2 U) and the mixture was incubated for 20 min at 22° C. For basal control measurements, the enzyme was omitted from the reaction mixture. Following incubation SPA beads were added. After 30 min at 22° C. under shaking, the amount of [3H]5′GMP was quantified with a scintillation counter (MicroBeta, Perkin Elmer). The results were expressed as a percent inhibition of the control enzyme activity. The standard inhibitory reference compound was Nitrendipine, which was tested in each experiment at several concentrations to obtain an inhibition curve from which its IC50 value was calculated. • Human phosphodiesterase-5 quantified by measuring the formation of 5′GMP from cGMP using an enzyme isolated from human platelets at Eurofins-Cerep.

IC50: > 10 µM
SMILES: COCCN(CCOC)c1nc(N2CCN(C)C(=O)C2)c2nc(N(CCOC)CCOC)nc(N3CCC(OC)CC3)c2n1 [Compound 72, 4-(2,6-bis(bis(2-methoxyethyl)amino)-8-(4-methoxypiperidin-1-yl)pyrimido[5,4-d]pyrimidin-4-yl)-1-methylpiperazin-2-one]

— patent publication US20230146675A1, “PYRIMIDO[5,4-d]PYRIMIDINE DERIVATIVES AS ENT INHIBITORS FOR THE TREATMENT OF CANCERS, AND COMBINATION THEREOF WITH ADENOSINE RECEPTOR ANTAGONISTS” (ITEOS BELGIUM SA, priority 2020, published 2023)
